Measurements from article PMC9558617 (ACS infectious diseases, 2022).
Values after ≈ are worked out from the molar mass of the structure shown.

System: Mtb H37Rv
Assay: microbe, parasite or virus in culture
Format: cell-based
Settings: Mycobacterium tuberculosis, 168 h, read-out: MIC 7H9/ADC/Tw

| Compound | MIC [µM] |
| --- | --- |
| N[C@H](Cc1ccccc1)C(=O)O [D-Phe, D-phenylalanine] | > 310 |

System: Mtb WT
Assay: microbe, parasite or virus in culture
Format: cell-based, Mycobacterium tuberculosis
Settings: not given

| Compound | MIC WT [µM] |
| --- | --- |
| CC1(C)S[C@@H]2[C@H](NC(=O)[C@H](N)c3ccccc3)C(=O)N2[C@H]1C(=O)O [Ampicillin] | >50 |
| Capreomycin | 0.78 |

Same assay, conditions: Mycobacterium tuberculosis

| Compound | MIC [µM] |
| --- | --- |
| CC1(C)S[C@@H]2[C@H](NC(=O)[C@H](N)c3ccccc3)C(=O)N2[C@H]1C(=O)O [Ampicillin] | 2.3 (≈ 0.804 µg/mL) |

Same assay, conditions: Mycobacterium tuberculosis, read-out: MIC WT

| Compound | MIC [µM] |
| --- | --- |
| CC(C)/N=c1\cc2n(-c3ccc(Cl)cc3)c3ccccc3nc-2cc1Nc1ccc(Cl)cc1 [Clofazimine] | 0.16 (≈ 0.0757 µg/mL) |
| C[C@@H](O)[C@H]1C(=O)N2C(C(=O)O)=C(S[C@@H]3CN[C@H](C(=O)N(C)C)C3)[C@H](C)[C@H]12 [Meropenem] | 1.2 (≈ 0.46 µg/mL) |
| Nc1ccc(C(=O)O)c(O)c1 [p-Aminosalicylic acid] | 0.3 (≈ 0.0459 µg/mL) |
| CC1(C)S[C@@H]2[C@H](NC(=O)[C@H](N)c3ccccc3)C(=O)N2[C@H]1C(=O)O [Ampicillin] | > 50 |
| COc1c(N2C[C@@H]3CCCN[C@@H]3C2)c(F)cc2c(=O)c(C(=O)O)cn(C3CC3)c12 [Moxifloxacin] | 0.12 (≈ 0.0482 µg/mL) |
| COc1nc2ccc(Br)cc2cc1[C@@H](c1ccccc1)[C@@](O)(CCN(C)C)c1cccc2ccccc12 [Bedaquiline] | 0.31 (≈ 0.172 µg/mL) |
| CC[C@@H](CO)NCCN[C@@H](CC)CO [Ethambutol] | 1.6 (≈ 0.327 µg/mL) |
| [H]/N=C(/N)N[C@H]1[C@H](O)[C@@H](O)[C@H](O[C@@H]2O[C@@H](C)[C@](O)(C=O)[C@H]2O[C@@H]2O[C@@H](CO)[C@H](O)[C@@H](O)[C@@H]2NC)[C@@H](N/C(N)=N\[H])[C@@H]1O [Streptomycin] | 0.46 (≈ 0.268 µg/mL) |
| C[C@@H](O)[C@H]1C(=O)N2C(C(=O)O)=C(SCCN=CN)C[C@H]12 [Imipenem] | 0.39 (≈ 0.117 µg/mL) |
| CN[C@H](CC(C)C)C(=O)N[C@H]1C(=O)N[C@@H](CC(N)=O)C(=O)N[C@H]2C(=O)N[C@H]3C(=O)N[C@H](C(=O)N[C@H](C(=O)O)c4cc(O)cc(O)c4-c4cc3ccc4O)[C@H](O)c3ccc(c(Cl)c3)Oc3cc2cc(c3O[C@@H]2O[C@H](CO)[C@@H](O)[C@H](O)[C@H]2O[C@H]2C[C@](C)(N)[C@H](O)[C@H](C)O2)Oc2ccc(cc2Cl)[C@H]1O [Vancomycin] | 5 (≈ 7.25 µg/mL) |
| N[C@@H]1CON=C1O [D-Cycloserine] | 4.7 (≈ 0.48 µg/mL) |
| C[C@]1(COc2ccc(N3CCC(Oc4ccc(OC(F)(F)F)cc4)CC3)cc2)Cn2cc([N+](=O)[O-])nc2O1 [Delamanid] | 0.0031 (≈ 0.00166 µg/mL) |
| CO[C@H]1/C=C/O[C@@]2(C)Oc3c(C)c(O)c4c(O)c(c(/C=N/N5CCN(C)CC5)c(O)c4c3C2=O)NC(=O)/C(C)=C\C=C\[C@H](C)[C@H](O)[C@@H](C)[C@@H](O)[C@@H](C)[C@H](OC(C)=O)[C@@H]1C [Rifampicin] | 0.012 (≈ 0.00988 µg/mL) |
| CCc1cc(C(N)=S)ccn1 [Ethionamide] | 0.3 (≈ 0.0499 µg/mL) |
| CC(=O)NC[C@H]1CN(c2ccc(N3CCOCC3)c(F)c2)C(=O)O1 [Linezolid] | 0.78 (≈ 0.263 µg/mL) |
| NNC(=O)c1ccncc1 [Isoniazid] | 0.31 (≈ 0.0425 µg/mL) |

System: PanE KPR from E. coli
Assay: not given
Settings: literature values; cited from earlier work

| Compound | Km [µM] |
| --- | --- |
| CC(C)(CO)C(=O)C(=O)O [ketopantoate] | 30 to 120 |
| NADPH | 4 to 7 |

System: CC(C)(CO)C(=O)C(=O)O
Assay: purified protein, by the assay type
Settings: not given

| Compound | Km [µM] |
| --- | --- |
| MtbPanG (Rv3603c) (Mycobacterium tuberculosis H37Rv) | 24 ± 2 |
